Two molecules from patent US20050282863A1, “Novel-N substituted dihydrobenzothiepino, dihydrobenzoxepino and tetrahydro benzocyclohepta indoles as selective estrogen receptor modulators” (Council of Scientific & Industrial Research, priority 2004, published 2005) can be followed below.

Assay [1] deals with chick fetal bones in culture. The experiment in a line: Inhibition in PTH-induced resorption of 45Ca from chick fetal bones in culture (antiresorptive activity in vitro). Type of assay: cell-based. The following applies: Gallus gallus, 96 h, PTH-induced 45Ca resorption, 96 h culture, read-out: T/C ratio. The procedure: 5 μl of each concentration are used for evaluation of antiresorptive activity in vitro. In control experiments, 5 μl of appropriate solvent is used in lieu of the test compound. Femur bones are isolated from chick embryos on day 11 post-ovulation. The adhering soft connective tissue is completely removed. Each femur bone is then placed in a drop of phosphate buffered saline (PBS) and is transferred to BGJb culture medium containing ^45CaCl2 and incubated for 2 h. Labeled femur bones are washed 2-3 times with PBS and transferred to BGJb medium containing parathyroid hormone and cultured for 96 h in the presence or absence of the compound of invention or the vehicle in BGJb medium. Contralateral femur of each fetus serves as corresponding control. Culture medium with the respective treatment in each well is changed after 48 h. On termination of the culture at 96 h, bones are transferred to 0.1 N HCl for 24 h. Radioactivity due to ^45Ca in the spent medium collected at 48 and 96 h of culture and HCl extract at 96 h of culture is quantified by Liquid Scintillation Spectrophotometer in 10 ml of the scintillation fluid. Bone resorbing activity is expressed as percentage of ^45Ca released into the culture medium and the effect of the compound of invention as percent of the corresponding contra-lateral control or T/C ratio as shown below: [formula]
Appropriate solvents are selected from solvents like water, physiological saline, phosphate buffered saline, phosphate buffer, DMSO alone or in a suitable combination thereof.

The test system of assay [2] is MCF-7 cells. Put plainly: Antiproliferative/cytotoxic activity in cultured MCF-7 cells (SRB assay). Type of assay: cell-based. The following applies: Homo sapiens, MCF7, 48 h, MCF-7, 48 h. In general terms: In SRB staining, fixed cells bind dye roughly in proportion to their protein.
The test system of assay [3] is immature ovariectomized rats. Put plainly: Estrogen agonistic activity: increase in uterine weight in immature ovariectomized rats. Type of assay: in vivo, rat. The following applies: 3 days, percent of ovariectomized + vehicle group; for change in vivo at 3 mg/kg: daily dose 3 mg/kg.
Assay [4] deals with immature ovariectomized rats. The experiment in a line: Estrogen antagonistic activity: inhibition in 17α-ethynylestradiol induced uterine weight gain in immature ovariectomized rats. The following applies: Rattus norvegicus, 72 h, 3 days, read-out: Percent inhibition in 17α-ethynylestradiol induced uterine weight gain; for inhibition in vivo at 10 mg/kg/day: daily dose 10 mg/kg with 0.02 mg/kg 17-alfa-ethynylestradiol. Type of assay: in vivo, rat.

Each structure is given as a SMILES string. Read-outs that look alike come from different tables or passages of the source.

Take `CCCCN(C)CCCCCn1c2c(c3ccccc31)CCSc1ccccc1-2` [Example number 13, 12-[5-(N-butylmethylamino)pentyl]-6,7-dihydro-12H-benzothiepino [5,4-b]indole]: the activity at 25 µM in assay [1] (25 μM) amounted to 33%. For the same molecule, the activity at 50 µM in assay [1] (50 μM) came out at 41%. In assay [1] (200 μM), the activity at 200 µM was found to be 61%. Further, the CC50 in assay [2] (read-out: LC50, Test-1) worked out at 24 µM. For the same molecule, the change in vivo at 1 mg/kg in assay [3] (Rattus norvegicus, 72 h, daily dose 1 mg/kg) stood at 8%. Also, in assay [3] (Rattus norvegicus, 72 h), the change in vivo at 3 mg/kg worked out at 2.53%. Besides, the “Percent increase in uterine weight” value in assay [3] (daily dose 10 mg/kg) was 126.00%. Also, the inhibition in vivo at 1 mg/kg/day in assay [4] (daily dose 1 mg/kg with 0.02 mg/kg 17-alfa-ethynylestradiol) is 12%. Moreover, the inhibition in vivo at 10 mg/kg/day in assay [4] turned out to be 37%.

For `c1ccc2c(c1)SCCc1c-2n(CCCCCCN2CCCCC2)c2ccccc12` [Example number 18, 12-[6-(Piperidine-1-yl)hexyl]-6,7-dihydro-12H-benzothiepino [5,4-b]indole], the activity at 100 µM in assay [1] (100 μM) turned out to be 160%. Further, the CC50 in assay [2] (read-out: LC50, Test-1) was 18.2 µM; in assay [2] (read-out: LC50, Test-3), 9.63 µM. In addition, in assay [3] (Rattus norvegicus, 72 h), the change in vivo at 3 mg/kg worked out at 1.76%. Moreover, the change in vivo at 10 mg/kg in assay [3] (Rattus norvegicus, 72 h, daily dose 10 mg/kg) stood at 51%. For the same molecule, the inhibition in vivo at 10 mg/kg/day in assay [4] was 19%.
